Reference: patent US20240277637A1, “CAPSAICIN DERIVATIVES IN THE TREATMENT OF IDIOPATHIC PULMONARY FIBROSIS” (aXichem AB, priority 2021, published 2024)

Tested on: human bronchial epithelial cells
Experiment: Clonogenic cell survival assay, bronchial epithelial cells with PDGF-AB (Example 2)
Type: cell-based
Experimental: Primary isolated human bronchial epithelial cells (NHBE) (Normal, Human (ATCC® BEAS-2B™)) were cultured up to passage 6. […].
A clonogenic cell survival assay determines the ability of a cell to proliferate indefinitely. The effects of phenylcapsaicin on clonogenic survival of bronchial epithelial cells was investigated by plating the cells with increasing numbers (10^2 to 5×10^4) in 25 cm^2 flasks. SU9518, a known inhibitor for PDGF which has shown the ability to reduce radiation-induced fibroblast and endothelial cell activation, was used as the positive control. The cells were incubated with 0-10 μM of phenylcapsaicin and SU9518 separately in the presence of 10 ng/ml PDGF-AB. The flasks were returned to the incubator for 14 days, after which they were stained with crystal violet. The colonies were counted, and the surviving percentage was determined for clonogenic survival after correcting for plating efficiency.

COc1cc(CNC(=O)CCCCC#Cc2ccccc2)ccc1O [Compound 2, N-(4-hydroxy-3-methoxybenzyl)-7-phenylhept-6-ynamide] was tested, and the “effect on clonogenic survival” value (0-10 μM, 10 ng/ml PDGF-AB, 14 days) was “dose-dependent inhibitory effect on survival”, the “surviving fraction of epithelial cells” value (5 μM, 10 ng/ml PDGF-AB, 14 days) was 35% and the “survival rate of the cells” value (10 μM, after 14 days, in the presence of PDGF) was 35%.
